Assay results from patent US5302587A, “Platinum (II) complex and agent for treating malignant tumor” (Toray Industries, Inc., priority 1989, dated 1994).

Tests used:
[1] = tested on: Cisplatin-resistant mouse leukemia L1210/CDDP cells; test: Anti-tumor activity in cisplatin-resistant L1210-transplanted mice (Table 2); type: in vivo; settings: L1210/CDDP-transplanted CDF1 mice
Method: In the abdominal cavities of CDFl mice (male, 6-week old, 5-10 mice/group, 105 mouse leukemia L1210 cells passaged in DBA/2 mice were transplanted. Defining the day of transplantation as Day 0, the compounds 1-5 of the present invention were separately administered intraperitoneally to mice on Day 1, Day 5 and Day 9, totaling 3 times. Each compound was administered after dissolving it in distilled water for injection. The evaluation of the anti-tumor activities of the platinum complexes against the L1210-transplanted mice was performed by T/C value which is obtained by the following equation: [formula]
In the abdominal cavities of CDFl mice (male, 6-week old, 5-10 mice/group), 105 Cisplatin-resistant mouse leukemia L1210/CDDP cells passaged in DBA/2 mice were transplanted. Defining the day of transplantation as Day 0, the compounds of the present invention and control drugs were separately administered intraperitoneally to mice on Day 1, Day 5 and Day 9, totaling 3 times.
The compounds of the present invention and carboplatin were administered after dissolving them in distilled water for injection and cisplatin was used after dissolving it in physiological saline for injection. The effectiveness of the compounds was evaluated by using the T/C value as in Example 7.

[2] = tested on: mouse leukemia cells L1210; test: Anti-tumor activity in L1210-transplanted mice (Reference Example 3, Table 4); type: in vivo; settings: 0.05% Tween 80, L1210-transplanted CDF1 mice
Method: The Samples A, B and C synthesized in Reference Examples 1 and 2 were evaluated for their anti-tumor activities by the following method:
In the abdominal cavities of CDFl mice (male, 6-week old, 6-10 mice/group), 105 mouse leukemia cells L1210 subcultured in DBA/2 mice were transplanted. Taking the day of transplantation as Day 0, the test drugs were separately administered intraperitoneally to the mice on Day 1, Day 5 and Day 9, totaling 3 times. Each drug was administered after dissolving or suspending it in 0.05% Tween 80 solution. The evaluation of the effectiveness was performed based on the T/C value which is obtained by the following equation as well as the number of survived mice on Day 30. [formula]

[3] = 2.5 mg/kg i.p. on Day 1, 5 and 9
[4] = 10 mg/kg i.p. on Day 1, 5 and 9
[5] = 25 mg/kg i.p. on Day 1, 5 and 9
[6] = 7.5 mg/kg i.p. on Day 1, 5 and 9
[7] = 50 mg/kg i.p. on Day 1, 5 and 9
[8] = 100 mg/kg i.p. on Day 1, 5 and 9
[9] = 200 mg/kg i.p. on Day 1, 5 and 9

| Structure (SMILES) | Number of Survived Mice (Day 30) [1, 5] | Survived Days (Mean ± Standard Deviation) [1, 5] | T/C [1, 5] | Number of Survived Mice (Day 30) ([2]; 1 mg/kg i.p. on Day 1, 5 and 9) | Number of Survived Mice (Day 30) [2, 4] | Survived Days (Mean ± Standard Deviation) [2, 4] | T/C [2, 4] | Number of Survived Mice (Day 30) [2, 5] | Survived Days (Mean ± Standard Deviation) [2, 5] | T/C [2, 5] | Number of Survived Mice (Day 30) [2, 7] | Survived Days (Mean ± Standard Deviation) [2, 7] | T/C [2, 7] | Number of Survived Mice (Day 30) [2, 8] | Survived Days (Mean ± Standard Deviation) [2, 8] | T/C [2, 8] | Number of Survived Mice (Day 30) [2, 9] | Survived Days (Mean ± Standard Deviation) [2, 9] | T/C [2, 9] | also measured |
| --- | --- | --- | --- | --- | --- | --- | --- | --- | --- | --- | --- | --- | --- | --- | --- | --- | --- | --- | --- | --- |
| N.N.[Cl][Pt][Cl] [Cisplatin] | 0/6 | 7.2 ± 1.6 days | 79% | – | – | – | – | – | – | – | – | – | – | – | – | – | – | – | – | Number of Survived Mice (Day 30) [1, 3]: 0/6; Survived Days (Mean ± Standard Deviation) [1, 3]: 9.3 ± 1.0 days; T/C [1, 3]: 102%; Number of Survived Mice (Day 30) ([1]; 5 mg/kg i.p. on Day 1, 5 and 9): 0/6; Survived Days (Mean ± Standard Deviation) ([1]; 5 mg/kg i.p. on Day 1, 5 and 9): 8.3 ± 0.5 days; T/C ([1]; 5 mg/kg i.p. on Day 1, 5 and 9): 91%; Number of Survived Mice (Day 30) [1, 4]: 0/6; Survived Days (Mean ± Standard Deviation) [1, 4]: 8.7 ± 0.8 days; T/C [1, 4]: 96%; Number of Survived Mice (Day 30) [2, 3]: 0/6; Survived Days (Mean ± Standard Deviation) [2, 3]: 13.0 ± 2.3 days; T/C [2, 3]: 155%; Number of Survived Mice (Day 30) ([2]; 5 mg/kg i.p. on Day 1, 5 and 9): 0/5; Survived Days (Mean ± Standard Deviation) ([2]; 5 mg/kg i.p. on Day 1, 5 and 9): 13.8 ± 1.1 days; T/C ([2]; 5 mg/kg i.p. on Day 1, 5 and 9): 164%; Number of Survived Mice (Day 30) [2, 6]: 0/6; Survived Days (Mean ± Standard Deviation) [2, 6]: 18.3 ± 6.2 days; T/C [2, 6]: 218% |
| CC(=O)[C-]1C(=O)CC(C)OC1=O.CC(=O)[C-]1C(=O)CC(C)OC1=O.N[C@@H]1CCCC[C@H]1N.O.[Pt+2] (relative stereo) [Sample A, [Pt(II)(trans-l-1,2-diaminocyclohexane)](3-acetyl-6-methyltetrahydropyran-2,4-dione)2.H2 O] | – | – | – | 0/6 | 0/6 | 11.5 ± 1.2 days | 137% | 0/6 | 14.2 ± 3.2 days | 169% | 0/6 | 17.0 ± 3.0 days | 202% | 0/6 | 15.5 ± 5.0 days | 185% | 0/6 | 6.0 days | 71% | – |
| CC(=O)[C-]1C(=O)CC(C)OC1=O.CC(=O)[C-]1C(=O)CC(C)OC1=O.N[C@@H]1CCCC[C@H]1N.O.[Pt+2] (relative stereo) [Sample B, [Pt(II)(trans-l-1,2-diaminocyclohexane)](3-acetyl-6-methyltetrahydropyran-2,4-dione)2.H2 O] | – | – | – | – | – | – | – | 0/6 | 8.5 ± 0.5 days | 101% | 0/6 | 8.8 ± 0.8 days | 105% | 0/6 | 9.2 ± 1.5 days | 110% | 0/6 | 9.5 ± 2.3 days | 113% | – |
| CC(=O)[C-]1C(=O)CCOC1=O.CC(=O)[C-]1C(=O)CCOC1=O.N[C@@H]1CCCC[C@H]1N.O.[Pt+2] (relative stereo) [Sample C, [Pt(II)(trans-l-1,2-diaminocyclohexane)](3-acetyltetrahydropyran-2,4-dione)2.H2 O] | – | – | – | 0/6 | 0/6 | 9.8 ± 1.6 days | 117% | 0/6 | 9.5 ± 0.5 days | 113% | 0/6 | 8.7 ± 2.2 days | 104% | 0/6 | 8.3 ± 0.8 days | 99% | 0/6 | 6.2 ± 1.5 days | 74% | Survived Days (Mean ± Standard Deviation) ([2]; 1 mg/kg i.p. on Day 1, 5 and 9): 8.7 ± 0.8 days; T/C ([2]; 1 mg/kg i.p. on Day 1, 5 and 9): 104% |
| N.N.O=C([O-])C1(C(=O)[O-])CCC1.[Pt+2] [Carboplatin] | 0/6 | 9.0 ± 1.1 days | 99% | – | – | – | – | – | – | – | – | – | – | – | – | – | – | – | – | Number of Survived Mice (Day 30) [1, 7]: 0/6; Survived Days (Mean ± Standard Deviation) [1, 7]: 9.7 ± 0.8 days; T/C [1, 7]: 107%; Number of Survived Mice (Day 30) [1, 8]: 0/6; Survived Days (Mean ± Standard Deviation) [1, 8]: 9.3 ± 0.8 days; T/C [1, 8]: 102%; Number of Survived Mice (Day 30) [1, 9]: 0/6; Survived Days (Mean ± Standard Deviation) [1, 9]: 7.3 ± 1.5 days; T/C [1, 9]: 80% |
